According to Sander's compilation of Henry's law constants (doi:10.1021/ac0604742):

Experiment: Henry solubility constant Hcp at 298.15 K (mol/(m3 Pa))
Settings: reference: Fang et al. (2006)

## Clc1cc(-c2ccc(Cl)c(Cl)c2Cl)cc(Cl)c1Cl [2,3,3',4,4',5'-hexachlorobiphenyl]
  Henry solubility constant Hcp: 0.06

## Clc1ccc(-c2ccc(Cl)c(Cl)c2Cl)cc1Cl [2,3,3',4,4'-pentachlorobiphenyl]
  Henry solubility constant Hcp: 0.18

## Clc1ccc(-c2cc(Cl)c(Cl)c(Cl)c2)cc1 [3,4,4',5-tetrachlorobiphenyl]
  Henry solubility constant Hcp: 0.088

## Clc1ccc(-c2cc(Cl)c(Cl)c(Cl)c2)cc1Cl [3,3',4,4',5-pentachlorobiphenyl]
  Henry solubility constant Hcp: 0.1

## Clc1cc(-c2cc(Cl)c(Cl)c(Cl)c2Cl)cc(Cl)c1Cl [2,3,3',4,4',5,5'-heptachlorobiphenyl]
  Henry solubility constant Hcp: 0.084

## Clc1ccc(-c2cc(Cl)c(Cl)c(Cl)c2)c(Cl)c1 [2,3',4,4',5'-pentachlorobiphenyl]
  Henry solubility constant Hcp: 0.046

## Clc1cc(Cl)c(-c2cc(Cl)c(Cl)c(Cl)c2)cc1Cl [2,3',4,4',5,5'-hexachlorobiphenyl]
  Henry solubility constant Hcp: 0.078

## Clc1ccc(-c2cc(Cl)c(Cl)cc2Cl)cc1Cl [2,3',4,4',5-pentachlorobiphenyl]
  Henry solubility constant Hcp: 0.057

## Clc1ccc(-c2cc(Cl)c(Cl)c(Cl)c2Cl)cc1Cl [2,3,3',4,4',5-hexachlorobiphenyl]
  Henry solubility constant Hcp: 0.068

## Clc1cc(-c2cc(Cl)c(Cl)c(Cl)c2)cc(Cl)c1Cl [3,3',4,4',5,5'-hexachlorobiphenyl]
  Henry solubility constant Hcp: 0.081

## Clc1ccc(-c2ccc(Cl)c(Cl)c2)cc1Cl [3,3',4,4'-tetrachlorobiphenyl]
  Henry solubility constant Hcp: 0.091
